Experimental data: ChEMBL document CHEMBL6153048, “Synthesis and pharmacological evaluation of natural product diphyllin derivatives against head and neck squamous cell carcinoma” (Eur J Med Chem, 2025)

Assays:
[1] = system: SCC-9; assay: Antiproliferative activity against human SCC-9 cells assessed as inhibition rate at 0.1 uM incubated for 72 hrs by MTT assay relative to control; format: functional
[2] = Antiproliferative activity against human HN-6 cells assessed as inhibition rate at 0.1 uM incubated for 72 hrs by MTT assay relative to control; format: functional
[3] = system: SCC-25; assay: Antiproliferative activity against human SCC-25 cells assessed as inhibition rate at 0.1 uM incubated for 72 hrs by MTT assay relative to control; format: functional
[4] = Antiproliferative activity against human WSU HN-30 cells assessed as inhibition rate at 0.1 uM incubated for 72 hrs by MTT assay relative to control; format: functional; conditions: WSU-HN30
[5] = system: CAL-27; assay: Antiproliferative activity against human CAL-27 cells assessed as inhibition rate at 0.1 uM incubated for 72 hrs by MTT assay relative to control; format: functional
[6] = Antiproliferative activity against human L02 cells assessed as inhibition rate at 0.1 uM incubated for 72 hrs by MTT assay relative to control; format: toxicity, cell-based
[7] = system: CAL-27; assay: Cytotoxicity against human CAL-27 cells incubated for 72 hrs by MTT assay; format: functional, cell-based; conditions: CAL-27, 72 h
[8] = system: SCC-9; assay: Cytotoxicity against human SCC-9 cells incubated for 72 hrs by MTT assay; format: functional, cell-based; conditions: SCC-9, 72 h
[9] = Cytotoxicity against human L02 cells incubated for 72 hrs by MTT assay; format: toxicity, cell-based
[10] = Cytotoxicity against human HN-6 cells incubated for 72 hrs by MTT assay; format: functional, cell-based; conditions: HN-6, 72 h
[11] = Cytotoxicity against human […] incubated for 72 hrs by MTT assay; format: functional, cell-based; conditions: WSU-HN30, 72 h
[12] = system: SCC-25; assay: Cytotoxicity against human SCC-25 cells incubated for 72 hrs by MTT assay; format: functional, cell-based; conditions: SCC-25, 72 h

Row | Compound | inhibition at 0.1 µM [1] | inhibition at 0.1 µM [2] | inhibition at 0.1 µM [3] | inhibition at 0.1 µM [4] | inhibition at 0.1 µM [5] | inhibition at 72 h, 0.1 µM [6] | IC50 [7] | IC50 [8] | IC50 at 72 h [9] | IC50 [10] | IC50 [11] | IC50 [12]
1 | COc1cc2c(OCCOCCNC(=O)C3(F)CNC3)c3c(c(-c4ccc5c(c4)OCO5)c2cc1OC)C(=O)OC3 | 32.6% | 10.8% | 19.5% | 10.7% | 9.95% | 3.51% | – | – | – | – | – | –
2 | COc1cc2c(O[C@@H]3O[C@@H]4CO[C@@H](c5ccc(SC)cc5)O[C@H]4[C@H](O)[C@H]3O)c3c(c(-c4ccc5c(c4)OCO5)c2cc1OC)C(=O)OC3 | 41.1% | 57.1% | 35.4% | 47.4% | 35.9% | 6.84% | – | – | – | – | – | –
3 | COc1cc2c(OCCOCCNC(=O)[C@@H]3CC(F)(F)CN3)c3c(c(-c4ccc5c(c4)OCO5)c2cc1OC)C(=O)OC3 | 35.3% | 22.3% | 41.7% | 19.9% | 2.62% | 8.13% | – | – | – | – | – | –
4 | COc1cc([C@@H]2c3cc4c(cc3[C@@H](O[C@@H]3O[C@@H]5CO[C@@H](C)O[C@H]5[C@H](O)[C@H]3O)[C@H]3COC(=O)[C@H]23)OCO4)cc(OC)c1O [ETOPOSIDE] | – | – | – | – | – | – | 7490 nM | 3700 nM | > 10000 nM | > 10000 nM | 1700 nM | 693 nM
5 | COc1cc2c(OCCOCCNC(=O)C3CNCC(F)(F)C3)c3c(c(-c4ccc5c(c4)OCO5)c2cc1OC)C(=O)OC3 (centres undefined) | 25.6% | 10.2% | 23.2% | 11.7% | 2.03% | 10.6% | – | – | – | – | – | –
6 | COc1cc2c(O[C@@H]3O[C@@H]4CO[C@@H](c5cccs5)O[C@H]4[C@H](O)[C@H]3O)c3c(c(-c4ccc5c(c4)OCO5)c2cc1OC)C(=O)OC3 | 54% | 56.3% | 52.5% | 41.3% | 50.7% | 7.19% | 18.1 nM | 31.5 nM | > 10000 nM | 68.1 nM | 120 nM | 9.34 nM
7 | COc1cc2c(OCCOCCNC(=O)C3=C[C@H](O)[C@H](O)[C@@H](O)C3)c3c(c(-c4ccc5c(c4)OCO5)c2cc1OC)C(=O)OC3 | 22.2% | 27.2% | 31.4% | 16.2% | 31.1% | 5.67% | – | – | – | – | – | –
8 | COc1cc2c(OCCOCCNC(=O)C(F)(F)[C@]3(O)O[C@H](CO)[C@@H](O)[C@H](O)[C@H]3O)c3c(c(-c4ccc5c(c4)OCO5)c2cc1OC)C(=O)OC3 | 13.9% | 4.3% | 10.2% | 8.25% | 1.73% | 1.74% | – | – | – | – | – | –
9 | COc1cc2c(O[C@@H]3O[C@@H]4CO[C@@H](C5CCCC5)O[C@H]4[C@H](O)[C@H]3O)c3c(c(-c4ccc5c(c4)OCO5)c2cc1OC)C(=O)OC3 | 42% | 54.2% | 49.1% | 40.5% | 8.02% | 9.37% | – | – | – | – | – | –
10 | COc1cc2c(OCCOCCNC(=O)[C@H]3[C@@H]4CNC[C@@H]43)c3c(c(-c4ccc5c(c4)OCO5)c2cc1OC)C(=O)OC3 | 17.5% | 7.38% | 14.7% | 6.67% | 2.26% | 3.53% | – | – | – | – | – | –
11 | COc1cc2c(O[C@@H]3O[C@@H]4CO[C@@H](C5CCCCC5)O[C@H]4[C@H](O)[C@H]3O)c3c(c(-c4ccc5c(c4)OCO5)c2cc1OC)C(=O)OC3 | 46.6% | 62.1% | 47.4% | 40.6% | 50.5% | 11.5% | 11.6 nM | 29.7 nM | 4670 nM | 14.8 nM | 35.2 nM | 15.2 nM
12 | COc1cc2c(O[C@@H]3O[C@@H]4CO[C@@H](c5cccc(C(F)(F)F)c5)O[C@H]4[C@H](O)[C@H]3O)c3c(c(-c4ccc5c(c4)OCO5)c2cc1OC)C(=O)OC3 | 37.5% | 60.6% | 33.6% | 40.9% | 37.4% | 9.53% | – | – | – | – | – | –
13 | COc1cc2c(OCCOCCOCCN)c3c(c(-c4ccc5c(c4)OCO5)c2cc1OC)C(=O)OC3 | 31.5% | 29.5% | 51.1% | 25.2% | 67.2% | 18.2% | 40.6 nM | 130 nM | 7870 nM | 94.6 nM | 123 nM | 92.6 nM
14 | COc1cc2c(OCCOCCN)c3c(c(-c4ccc5c(c4)OCO5)c2cc1OC)C(=O)OC3 | 34.9% | 50.8% | 28.9% | 34.2% | 45.6% | 18.3% | 101 nM | 135 nM | > 10000 nM | 185 nM | 144 nM | 85 nM
15 | COc1cc2c(OCCOCCNC(=O)[C@@H]3CCC(=O)N3)c3c(c(-c4ccc5c(c4)OCO5)c2cc1OC)C(=O)OC3 | 8.65% | 19.8% | 18.5% | 15.9% | 29.5% | 6.04% | – | – | – | – | – | –
16 | COc1cc2c(O[C@@H]3O[C@@H]4CO[C@@H](c5csc(Br)c5)O[C@H]4[C@H](O)[C@H]3O)c3c(c(-c4ccc5c(c4)OCO5)c2cc1OC)C(=O)OC3 | 72.3% | 57.6% | 58.4% | 49.9% | 78.3% | 20.8% | 14.5 nM | 16.4 nM | 3680 nM | 6.07 nM | 7.33 nM | 86.4 nM
17 | COc1cc2c(NC(=O)C(F)(F)[C@]3(O)O[C@H](CO)[C@@H](O)[C@H](O)[C@H]3O)c3c(c(-c4ccc5c(c4)OCO5)c2cc1OC)C(=O)OC3 | 19.4% | 13.1% | 28.2% | 12.3% | 27.6% | 4.58% | – | – | – | – | – | –
18 | COc1cc2c(NC(=O)C(F)(F)[C@]3(OCc4ccccc4)O[C@H](COCc4ccccc4)[C@@H](OCc4ccccc4)[C@H](OCc4ccccc4)[C@H]3OCc3ccccc3)c3c(c(-c4ccc5c(c4)OCO5)c2cc1OC)C(=O)OC3 | 14.7% | 12.7% | 17.8% | 8.5% | 26.1% | 3.29% | – | – | – | – | – | –
19 | COc1cc2c(O[C@@H]3O[C@@H]4CO[C@@H](C5CCOCC5)O[C@H]4[C@H](O)[C@H]3O)c3c(c(-c4ccc5c(c4)OCO5)c2cc1OC)C(=O)OC3 | 35.4% | 58.9% | 24.6% | 28.9% | 35.5% | 6.66% | – | – | – | – | – | –
20 | COc1cc2c(OCCOCCNC(=O)CON)c3c(c(-c4ccc5c(c4)OCO5)c2cc1OC)C(=O)OC3 | 18.7% | 18.7% | 31.8% | 23.5% | 33% | 9.46% | – | – | – | – | – | –
21 | CCC(CC)[C@@H]1OC[C@H]2O[C@@H](Oc3c4c(c(-c5ccc6c(c5)OCO6)c5cc(OC)c(OC)cc35)C(=O)OC4)[C@H](O)[C@@H](O)[C@@H]2O1 | 43.2% | 55.1% | 44.9% | 38.3% | 24.3% | 8.83% | – | – | – | – | – | –
22 | COc1cc2c(OCCN)c3c(c(-c4ccc5c(c4)OCO5)c2cc1OC)C(=O)OC3 | 30.4% | 28.2% | 10.8% | 18.9% | 6.31% | 7.89% | – | – | – | – | – | –
23 | COc1cc2c(O[C@@H]3O[C@@H]4CO[C@@H](c5ccc(C)s5)O[C@H]4[C@H](O)[C@H]3O)c3c(c(-c4ccc5c(c4)OCO5)c2cc1OC)C(=O)OC3 | 46.2% | 57.2% | 41% | 40.1% | 32.4% | 9.5% | – | – | – | – | – | –
24 | COc1cc2c(NC(=O)C(F)(F)[C@]3(O)O[C@@H]4CO[C@@H](c5ccsc5)O[C@H]4[C@H](O)[C@H]3O)c3c(c(-c4ccc5c(c4)OCO5)c2cc1OC)C(=O)OC3 | 16.6% | 14.5% | 23.6% | 14% | 25.8% | 3.32% | – | – | – | – | – | –
